Results from ChEMBL document CHEMBL4808169, “Discovery of Potent and Fast-Acting Antimalarial Bis-1,2,4-triazines” (J Med Chem, 2021).

Columns and labels:
[1] = Drug metabolism in Sprague-Dawley rat urine assessed as oxygenated metabolite N-methyl-2-(3'-propoxy-5,5'-bi(1,2,4-triazin)-3-yloxy)ethanamine oxide formation at 3 mg/kg, iv by high-resolution mass spectrometry; type: ADME, organism-based; details: in vivo
[2] = Drug metabolism in mouse hepatocytes assessed as oxygenated metabolite M+16(2) formation by LC-MS/MS(CID) analysis; type: ADME, cell-based, Hepatocyte
[3] = Drug metabolism in human liver microsomes assessed as 3'-propoxy-5,5'-bi(1,2,4-triazin)-3-ol formation by LC-MS/MS(CID) analysis; type: ADME, Microsome
[4] = Cmax in Swiss mouse plasma at 27 mg/kg, po measured up to 24 hrs by LC-MS analysis; type: ADME, organism-based; parameters: route oral, dose 27 mg/kg, time <=24
[5] = Metabolic stability of compound in Sprague-Dawley rat blood assessed as parent compound loss measured over 4 hrs by LC-MS analysis; type: ADME, tissue-based; details: whole blood, read-out: Drug degradation

Drug metabolism [1]: Metabolite_Detected
Drug metabolism [2]: Metabolite_Detected
Drug metabolism [3]: Metabolite_Notdetected
Cmax [4]: 82 nM
metabolised at 4 h [5]: 15%
SMILES: CCCOc1nncc(-c2cnnc(OCCN(C)C)n2)n1
